Experimental data published in patent US11046682B2, “Fused heterocyclic derivatives, their preparation methods thereof and medical uses thereof” (Beijing Innocare Pharma Tech Co., Ltd., priority 2016, dated 2021).

Target: full-length human recombinant IDO1 protein (Homo sapiens (Human), UniProt P14902)
Test: IDO enzyme activity inhibition testing (Ehrlich method)
Format: biochemical
Settings: OD490, 10 concentration points
Description: IDO Enzyme Activity Inhibition Testing
The effects of the compounds of the invention on the activity of indoleamine 2,3-dioxygenase (IDO) were evaluated by the Ehrlich method.
The experimental principle is summarized as follows: IDO1 catalyzes oxidation of tryptophan to form N-formyl kynurenine, N-formyl kynurenine is subsequently hydrolyzed by trichloroacetic acid to form kynurenine, and kynurenine further reacts with the Ehrlich reagent to make the solution yellow. The absorbance at 490 nm (OD490) is directly proportional to the activity of IDO1.
The experimental methods are summarized as follows:
The reaction buffer was 50 mM 2-(N-morpholine)ethanesulfonic acid-hydrate (Sigma, Cat. No. 69889); the full-length human recombinant IDO1 protein was purchased from the Tsinghua Protein Research Technology Center and diluted to a 33.6 ng/μL enzyme solution with the reaction buffer; the substrate solution was prepared with the reaction buffer containing 20 mM vitamin C (Sigma, Cat. No. A5960), 150 μM L-tryptophan (Sigma, Cat. No. T0254), 2250 UI/mL catalase (Sigma, Cat. No. C30), and 10 μM methylene blue (Sigma, Cat. No. 28514); the reaction termination solution was 30% (mass/volume) trichloroacetic acid (Sigma, Cat. No. T9159) aqueous solution; the Ehrlich reagent was 2% p-dimethylaminobenzaldehyde (Sigma, Cat. No. 156477) acetic acid (Macklin, Cat. No. A801295) solution.
A compound was dissolved in DMSO (Sigma, Cat. No. D5879) and diluted to 1 mM, then serially diluted 3-fold with DMSO to a minimum concentration of 50.8 nM, and each concentration was further diluted 25-fold with the reaction buffer. If a compound's IC50 value was very low, the initial concentration of the compound was decreased.
A 10-μL compound solution and a 10-μL enzyme solution were added to a 96-well plate (Sigma, Cat. No. CLS3695), mixed well and incubated at room temperature. After 15 min, a 20-μL substrate solution was added and incubated at 60° C. after mixing for 30 min. The reaction plate was equilibrated to room temperature and 60 μL of the Ehrlich reagent was added. After incubation for 15 min, OD490 of each well was measured.
In this experiment, OD490 without enzyme was referred as OD490100% inhibition, and OD490 with enzyme added but without compound was referred as OD4900% inhibition.
(§1) Where Y is the percentage of inhibition, Bottom is the bottom platform value of the S-curve, Top is the top platform value of the S-curve, X is the logarithm of the concentration of the test compound, and slope factor is the slope coefficient of the curve.

Chain of full-length human recombinant IDO1 protein (P14902 whole entry): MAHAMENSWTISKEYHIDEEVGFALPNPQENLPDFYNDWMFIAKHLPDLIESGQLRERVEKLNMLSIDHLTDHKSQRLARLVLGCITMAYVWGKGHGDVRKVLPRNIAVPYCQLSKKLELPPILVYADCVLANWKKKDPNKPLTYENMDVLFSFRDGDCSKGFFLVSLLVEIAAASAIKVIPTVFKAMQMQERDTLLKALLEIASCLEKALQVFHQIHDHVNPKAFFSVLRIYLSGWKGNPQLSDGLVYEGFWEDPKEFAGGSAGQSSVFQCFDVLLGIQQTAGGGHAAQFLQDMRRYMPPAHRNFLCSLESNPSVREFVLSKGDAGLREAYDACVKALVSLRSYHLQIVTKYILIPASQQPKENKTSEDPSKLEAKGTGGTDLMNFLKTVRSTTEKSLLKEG

`N#Cc1ccc(NC(=O)Nc2cccc3cncn23)cc1` [Compound 1, 1-(4-cyanophenyl)-3-(imidazo[1,5-a]pyridin-5-yl)urea] and `O=C(Nc1ccc(Cl)cc1)Nc1cccc2cncn12` [Compound 3, 1-(4-chlorophenyl)-3-(imidazo[1,5-a]pyridin-5-yl)urea] fall in the same range of IC50: 0.25 to 1.5 µM for the first, 0.25 to 1.5 µM for the second.

First: N#Cc1ccc(NC(=O)Nc2c(F)ccc3cncn23)cc1 [Compound 14, 1-(4-cyanophenyl)-3-(6-fluoroimidazo[1,5-a]pyridin-5-yl)urea]
Second: COc1ccc2cncn2c1NC(=O)Nc1ccc(C#N)cc1 [Compound 15, 1-(4-cyanophenyl)-3-(6-methoxyimidazo[1,5-a]pyridin-5-yl)urea]
The IC50 of the first is lower: under 0.25 µM for the first, 0.25 to 1.5 µM for the second. The first is the more potent here.

Compared with `CCOc1ccc2cncn2c1NC(=O)Nc1ccc(C#N)cc1` [Compound 16, 1-(4-cyanophenyl)-3-(6-ethoxyimidazo[1,5-a]pyridin-5-yl)urea], `N#Cc1ccc(NC(=O)Nc2cc(Cl)cc3cncn23)cc1` [Compound 20, 1-(7-chloroimidazo[1,5-a]pyridin-5-yl)-3-(4-cyanophenyl)urea] is lower in IC50: 0.25 to 1.5 µM for the first, under 0.25 µM for the second.

`O=C(Nc1ccc(C(=O)O)cc1)Nc1c(-c2ccccc2)ccc2cncn12` [Compound 27, 4-(3-(6-phenylimidazo[1,5-a]pyridin-5-yl)ureido)benzoic acid] and `NC(=O)c1ccc(NC(=O)Nc2c(-c3ccccc3)ccc3cncn23)cc1` [Compound 29, 4-(3-(6-phenylimidazo[1,5-a]pyridin-5-yl)ureido)benzamide] fall in the same range of IC50: 0.25 to 1.5 µM for the first, 0.25 to 1.5 µM for the second.

`CNC(=O)c1ccc(NC(=O)Nc2c(-c3ccccc3)ccc3cncn23)cc1` [Compound 28, N-methyl-4-(3-(6-phenylimidazo[1,5-a]pyridin-5-yl)ureido)benzamide] and `O=C(Nc1ccc(C(=O)NCCO)cc1)Nc1c(-c2ccccc2)ccc2cncn12` [Compound 30, N-(2-hydroxyethyl)-4-(3-(6-phenylimidazo[1,5-a]pyridin-5-yl)ureido)benzamide] fall in the same range of IC50: 0.25 to 1.5 µM for the first, 0.25 to 1.5 µM for the second.

Compared with `N#Cc1ccc(NC(=O)Nc2c(-c3ccccc3)ccc3cncn23)cn1` [Compound 32, 1-(6-cyanopyridin-3-yl)-3-(6-phenylimidazo[1,5-a]pyridin-5-yl)urea], `N#Cc1ccc(NC(=O)Nc2c(-c3ccccc3)ccc3cncn23)nc1` [Compound 33, 1-(5-cyanopyridin-2-yl)-3-(6-phenylimidazo[1,5-a]pyridin-5-yl)urea] is higher in IC50: under 0.25 µM for the first, 0.25 to 1.5 µM for the second. The first is the more potent here.

`COc1cc(NC(=O)Nc2c(-c3ccccc3)ccc3cncn23)ccc1C#N` [Compound 34, 1-(4-cyano-3-methoxyphenyl)-3-(6-phenylimidazo[1,5-a]pyridin-5-yl)urea] and `COc1cc(C#N)ccc1NC(=O)Nc1c(-c2ccccc2)ccc2cncn12` [Compound 35, 1-(4-cyano-2-methoxyphenyl)-3-(6-phenylimidazo[1,5-a]pyridin-5-yl)urea] cannot be ordered by IC50: under 0.25 µM for the first, under 0.25 µM for the second.

First: N#Cc1ccc(NC(=O)Cc2c(-c3ccccc3)ccc3cncn23)c(CO)c1 [Compound 40, N-(4-cyano-2-(hydroxymethyl)phenyl)-2-(6-phenylimidazo[1,5-a]pyridin-5-yl)acetamide]
Second: N#Cc1ccc(N(O)C(=O)Cc2c(-c3ccccc3)ccc3cncn23)cc1 [Compound 45, N-(4-cyanophenyl)-N-hydroxy-2-(6-phenylimidazo[1,5-a]pyridin-5-yl)acetamide]
The IC50 of the first is higher: 0.25 to 1.5 µM for the first, under 0.25 µM for the second. The second is the more potent here.

First: N#Cc1ccc(NC(=O)Cc2cc(Cl)cc3cncn23)cc1 [Compound 41, 2-(7-chloroimidazo[1,5-a]pyridin-5-yl)-N-(4-cyanophenyl)acetamide]
Second: N#Cc1ccc(NC(=O)Cc2cc(Cl)cc3[nH]ncc23)cc1 [Compound 63, 2-(6-chloro-1H-indazol-4-yl)-N-(4-cyanophenyl)acetamide]
The IC50 of the first is lower: under 0.25 µM for the first, 0.25 to 1.5 µM for the second. The first is the more potent here.

First: N#Cc1ccc(CNCc2c(-c3ccccc3)ccc3cncn23)cc1 [Compound 42, 4-((((6-phenylimidazo[1,5-a]pyridin-5-yl)methyl)amino)methyl)benzonitrile]
Second: CN(Cc1ccc(C#N)cc1)Cc1c(-c2ccccc2)ccc2cncn12 [Compound 55, 4-((methyl((6-phenylimidazo[1,5-a]pyridin-5-yl)methyl)amino)methyl)benzonitrile]
The IC50 of the first is lower: under 0.25 µM for the first, 0.25 to 1.5 µM for the second. The first is the more potent here.

`O=C(Cc1c(-c2ccccc2)ccc2cncn12)Nc1ccc(C(=O)N2CCOCC2)cc1` [Compound 47, N-(4-(morpholine-4-carbonyl)phenyl)-2-(6-phenylimidazo[1,5-a]pyridin-5-yl)acetamide] and `COC1CCN(C(=O)c2ccc(NC(=O)Cc3c(-c4ccccc4)ccc4cncn34)cc2)CC1` [Compound 48, N-(4-(4-methoxypiperidine-1-carbonyl)phenyl)-2-(6-phenylimidazo[1,5-a]pyridin-5-yl)acetamide] cannot be ordered by IC50: under 0.25 µM for the first, under 0.25 µM for the second.

First: COCCn1cc(-c2ccc(NC(=O)Cc3c(-c4ccccc4)ccc4cncn34)cc2)cn1 [Compound 52, N-(4-(1-(2-methoxyethyl)-1H-pyrazol-4-yl)phenyl)-2-(6-phenylimidazo[1,5-a]pyridin-5-yl)acetamide]
Second: c1ccc(CNCc2c(-c3ccccc3)ccc3cncn23)cc1 [Compound 58, N-benzyl-1-(6-phenylimidazo[1,5-a]pyridin-5-yl)methanamine]
The IC50 of the first is lower: under 0.25 µM for the first, 0.25 to 1.5 µM for the second.

Compared with `c1ccc(-c2ccc3cncn3c2CNCC2CCCCC2)cc1` [Compound 59, 1-cyclohexyl-N-((6-phenylimidazo[1,5-a]pyridin-5-yl)methyl)methanamine], `CC(C)(O)CNCc1c(-c2ccccc2)ccc2cncn12` [Compound 62, 2-methyl-1-(((6-phenylimidazo[1,5-a]pyridin-5-yl)methyl)amino)propan-2-ol] is lower in IC50: 0.25 to 1.5 µM for the first, under 0.25 µM for the second. The second is the more potent here.

`CC(C)CNCc1c(-c2ccccc2)ccc2cncn12` [Compound 61, 2-methyl-N-((6-phenylimidazo[1,5-a]pyridin-5-yl)methyl)propan-1-amine] showed an IC50 of 0.25 to 1.5 µM.

Target: indoleamine 2,3-dioxygenase (IDO) in Hela cells (Homo sapiens (Human), UniProt P14902)
Sequence (P14902 whole entry): as above
Test: IDO intracellular activity inhibition testing in Hela cells induced by IFN-γ (Ehrlich method)
Format: cell-based
Settings: 24 hours, OD490, 8 concentration points
Description: IDO Intracellular Activity Inhibition Testing
The effects of the compounds of the invention on the activity of indoleamine 2,3-dioxygenase (IDO) in Hela cells induced by IFN-γ were evaluated by the Ehrlich method.
The experimental principle is summarized as follows: IDO expression is low in Hela cells under no induction, but a certain concentration of IFN-γ can induces Hela cells to express IDO which catalyzes the conversion of tryptophan to N-formyl kynurenine, which in turn is hydrolyzed by trichloroacetic acid to give kynurenine. Kynurenine then reacts with the Ehrlich reagent to give a color enabling detection of the IDO activity. The absorbance at 490 nm (OD490) is directly proportional to the IDO activity.
A compound was dissolved in DMSO (Sigma, Cat. No. D5879) and diluted to 5 mM, then serially diluted 3-fold with DMSO to a minimum concentration of 2.29 μM, and each concentration point was diluted 50-fold with FBS-free DMEM medium (ThermoFisher, Cat. No. 11995073). If a compound's IC50 value is very low, the initial concentration of the compound was lowered.
Hela cells (ATCC, Cat. No. CCL-2) were cultured in DMEM complete medium containing 10% FBS (GBICO, Cat. No. 10099-141) and 100 U/mL streptomycin mixture (ThermoFisher, Cat. No. 15140122). When covering the culture vessel 80-90%, the cells were digested with 0.25% trypsin (containing EDTA) (ThermoFisher, Cat. No. 25200056) and planted in 96-well plates (Corning, Cat. No. 3599), 20000 cells per well (80 μL of DMEM medium). The plates were then incubated in a 37° C., 5% CO2 incubator overnight (18-20 hours).
After overnight, 10 μL of DMEM-diluted compound and 10 μL of 500 ng/mL of INF-γ were added to each well, and gently mixed and the 96-well plates were placed in a 37° C., 5% CO2 incubator for further culturing. After 24 hours, they were removed and centrifuged at room temperature 2000×g for 5 min, and then the supernatants were transferred to reaction plates (Sigma, Cat. No. CLS3695). One-twentieth of trichloroacetic acid (Sigma, Cat. No. T9159) was added and incubated at 60° C. After 30 min, the reaction plates were centrifuged at room temperature 2000×g for 5 min. The supernatants were transferred to clean reaction plates, an equal volume of the Ehrlich reagent was added, mixed, and incubated at room temperature. After 15 min, OD490 of each well was measured.
In this experiment, OD490 without IFN-γ but with DMEM medium replacement was referred as OD490100% inhibition. OD490 with IFN-γ and 0.2% DMSO was referred as OD4900% inhibition. The percentage of inhibition on the IDO1 activity in Hela cells by a compound was calculated using the following formula: Inhibition %=100−100*(OD490compound−OD490100% inhibition)/(OD4900% inhibition−OD490100% inhibition)
as §1

`N#CC1CCC(NC(=O)Nc2c(-c3ccccc3)ccc3cncn23)CC1` (centres unmarked) [Compound 36, 1-(4-cyanocyclohexyl)-3-(6-phenylimidazo[1,5-a]pyridin-5-yl)urea] and `N#Cc1ccc(NC(=O)C(O)c2c(-c3ccccc3)ccc3cncn23)cc1` (centres unmarked) [Compound 64, N-(4-cyanophenyl)-2-hydroxy-2-(6-phenylimidazo[1,5-a]pyridin-5-yl)acetamide] cannot be ordered by IC50: under 1 µM for the first, under 1 µM for the second.
